For 29 molecules, IC50 results are on record in patent US9388140B2, “Substituted benzimidazoles” (priority 2011, dated 2016).

The target in this assay is human kinase Mps-1 (Homo sapiens (Human), UniProt P33981). The experiment in a line: Mps-1 kinase assay (TR-FRET). Format: biochemical. As for the experimental part: The human kinase Mps-1 phosphorylates a biotinylated substrate peptide. Detection of the phosphorylated product is achieved by time-resolved fluorescence resonance energy transfer (TR-FRET) from Europium-labelled anti-phospho-Serine/Threonine antibody as donor to streptavidin labelled with cross-linked allophycocyanin (SA-XLent) as acceptor. Compounds are tested for their inhibition of the kinase activity.
Sequence of human kinase Mps-1 (P33981 whole entry): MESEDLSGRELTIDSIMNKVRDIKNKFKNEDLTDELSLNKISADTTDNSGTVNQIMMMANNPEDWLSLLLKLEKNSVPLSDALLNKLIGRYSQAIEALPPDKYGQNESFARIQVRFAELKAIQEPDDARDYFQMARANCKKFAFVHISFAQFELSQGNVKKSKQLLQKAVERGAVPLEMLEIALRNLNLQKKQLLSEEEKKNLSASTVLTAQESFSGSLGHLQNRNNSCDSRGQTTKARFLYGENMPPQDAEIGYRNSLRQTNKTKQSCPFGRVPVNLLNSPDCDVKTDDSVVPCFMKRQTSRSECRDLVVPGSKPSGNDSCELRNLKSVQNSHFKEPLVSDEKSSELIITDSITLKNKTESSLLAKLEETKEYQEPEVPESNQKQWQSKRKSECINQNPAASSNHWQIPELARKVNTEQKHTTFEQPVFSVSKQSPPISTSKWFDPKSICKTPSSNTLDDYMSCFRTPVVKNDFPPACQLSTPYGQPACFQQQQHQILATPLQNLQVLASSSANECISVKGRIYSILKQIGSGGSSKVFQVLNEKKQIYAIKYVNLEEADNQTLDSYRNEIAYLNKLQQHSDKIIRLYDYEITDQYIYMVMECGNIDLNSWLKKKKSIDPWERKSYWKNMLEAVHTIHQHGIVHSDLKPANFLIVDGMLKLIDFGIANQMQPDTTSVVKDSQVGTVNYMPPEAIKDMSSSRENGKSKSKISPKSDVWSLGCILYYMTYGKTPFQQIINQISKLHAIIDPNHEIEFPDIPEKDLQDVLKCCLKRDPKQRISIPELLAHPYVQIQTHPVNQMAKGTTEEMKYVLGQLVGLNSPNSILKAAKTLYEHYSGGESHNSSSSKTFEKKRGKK
N-terminally GST-tagged human full length recombinant Mps-1 kinase (purchased from Invitrogen, Karslruhe, Germany, cat. no PV4071) was used. As substrate for the kinase reaction a biotinylated peptide of the amino-acid sequence […] (C-terminus in amide form, purchased from Biosynthan GmbH, Berlin) was used.
The concentration of Mps-1 in the assay was adjusted to the activity of the enzyme lot and was chosen appropriate to have the assay in the linear range, typical enzyme concentrations were in the range of about 1 nM (final conc. in the 5 μl assay volume).
The resulting mixture was incubated 1 h at 22° C. to allow the binding of the phosphorylated peptide to the anti-phospho(Ser/Thr)-Europium-antibody. Subsequently the amount of phosphorylated substrate was evaluated by measurement of the resonance energy transfer from the Europium-labelled anti-phospho(Ser/Thr) antibody to the Streptavidin-XLent.

[1] abbreviates: N-terminally GST-tagged human full length recombinant Mps-1, 10 μM ATP, 1 μM biotinylated peptide substrate, read-out: Mps1 IC50.

pIC50: −log10 of the molar value. Where two headings read alike, the source gives them in different places.

Usually pIC50 stands for the negative decadic logarithm of the IC50, by convention in mol/L. With `Cc1cc(-n2cnc3c(NCCC(F)(F)F)cc(-c4ccnn4C)cc32)ccc1C(=O)NC1CC1` [Example 30, N-cyclopropyl-2-methyl-4-{6-(1-methyl-1H-pyrazol-5-yl)-4-[(3,3,3-trifluoropropyl)amino]-1H-benzimidazol-1-yl}benzamide], the negative logarithm of the IC50 (pIC50) under setting [1] is 8.32.

For `CCNC(=O)c1ccc(-n2cnc3c(NCCC(F)(F)F)cc(-c4ccnn4C)cc32)cc1C` [Example 31, N-ethyl-2-methyl-4-{6-(1-methyl-1H-pyrazol-5-yl)-4-[(3,3,3-trifluoropropyl)amino]-1H-benzimidazol-1-yl}benzamide], the pIC50 under setting [1] was 7.48.

In the case of `CNC(=O)c1ccc(-n2cnc3c(NCCC(F)(F)F)cc(-c4ccnn4C)cc32)cc1C` [Example 32, N, 2-dimethyl-4-{6-(1-methyl-1H-pyrazol-5-yl)-4-[(3,3,3-trifluoropropyl)amino]-1H-benzimidazol-1-yl}benzamide], under setting [1], the pIC50 is 7.69.

`COc1ccc(Oc2cc(NCCC(F)(F)F)c3ncn(-c4ccc(C(=O)NC5CC5)c(C)c4)c3c2)cc1F` [Example 33, N-cyclopropyl-4-{6-(3-fluoro-4-methoxyphenoxy)-4-[(3,3,3-trifluoropropyl)amino]-1H-benzimidazol-1-yl}-2-methylbenzamide]: the pIC50 under setting [1] is 9.15.

As to `CCNC(=O)c1ccc(-n2cnc3c(NCCC(F)(F)F)cc(Oc4ccc(OC)c(F)c4)cc32)cc1C` [Example 34, N-ethyl-4-{6-(3-fluoro-4-methoxyphenoxy)-4-[(3,3,3-trifluoropropyl)amino]-1H-benzimidazol-1-yl}-2-methylbenzamide], the pIC50 under setting [1] was 8.24.

Consider `CNC(=O)c1ccc(-n2cnc3c(NCCC(F)(F)F)cc(Oc4ccc(OC)c(F)c4)cc32)cc1C` [Example 35, 4-{6-(3-Fluoro-4-methoxyphenoxy)-4-[(3,3,3-trifluoropropyl)amino]-1H-benzimidazol-1-yl}-N,2-dimethylbenzamide], for which the negative-log IC50 (pIC50) under setting [1] is 8.41.

`O=C(NC1CC1)c1ccc(-n2cnc3c(NCCC(F)(F)F)cc(Oc4cccc(F)c4F)cc32)cc1` [Example 36, N-cyclopropyl-4-{6-(2,3-difluorophenoxy)-4-[(3,3,3-trifluoropropyl)amino]-1H-benzimidazol-1-yl}benzamide]: the pIC50 was 9.40.

The molecule `O=C(NC1CC1)c1ccc(-n2cnc3c(NCCC(F)(F)F)cc(Oc4ccccc4)cc32)cc1` [Example 37, N-cyclopropyl-4-{6-phenoxy-4-[(3,3,3-trifluoropropyl)amino]-1H-benzimidazol-1-yl}benzamide] had a pIC50 of 9.30.

Consider `COc1ccc(Oc2cc(NCCC(F)(F)F)c3ncn(-c4ccc(C(=O)NC5CC5)cc4)c3c2)cc1F` [Example 38, N-cyclopropyl-4-{6-(3-fluoro-4-methoxyphenoxy)-4-[(3,3,3-trifluoropropyl)amino]-1H-benzimidazol-1-yl}benzamide], for which the pIC50 under setting [1] is 9.40.

`CNC(=O)c1ccc(-n2cnc3c(NCCC(F)(F)F)cc(Oc4ccccc4OC)cc32)cc1C` [Example 39, 4-{6-(2-Methoxyphenoxy)-4-[(3,3,3-trifluoropropyl)amino]-1H-benzimidazol-1-yl}-N, 2-dimethylbenzamide]: under setting [1], the pIC50 was 7.36.

In the case of `CCNC(=O)c1ccc(-n2cnc3c(NCCC(F)(F)F)cc(Oc4ccccc4OC)cc32)cc1C` [Example 40, N-ethyl-4-{6-(2-methoxyphenoxy)-4-[(3,3,3-trifluoropropyl)amino]-1H-benzimidazol-1-yl}-2-methylbenzamide], the pIC50 under setting [1] is 7.24.

On to `COc1ccccc1Oc1cc(NCCC(F)(F)F)c2ncn(-c3ccc(C(=O)NC4CC4)c(C)c3)c2c1` [Example 41, N-cyclopropyl-4-{6-(2-methoxyphenoxy)-4-[(3,3,3-trifluoropropyl)amino]-1H-benzimidazol-1-yl}-2-methylbenzamide], for which the pIC50 under setting [1] was 8.00.

For the molecule `CNC(=O)c1ccc(-n2cnc3c(NCC4CCOCC4)cc(Oc4ccc(OC)c(F)c4)cc32)cc1C` [Example 42, 4-{6-(3-Fluoro-4-methoxyphenoxy)-4-[(tetrahydro-2H-pyran-4-ylmethyl)amino]-1H-benzimidazol-1-yl}-N,2-dimethylbenzamide], the pIC50 under setting [1] was 8.31.

With `CCNC(=O)c1ccc(-n2cnc3c(NCC4CCOCC4)cc(Oc4ccc(OC)c(F)c4)cc32)cc1C` [Example 43, N-ethyl-4-{6-(3-fluoro-4-methoxyphenoxy)-4-[(tetrahydro-2H-pyran-4-ylmethyl)amino]-1H-benzimidazol-1-yl}-2-methylbenzamide], the negative logarithm of the IC50 (pIC50) under setting [1] was 8.40.

As for `COc1ccc(Oc2cc(NCC3CCOCC3)c3ncn(-c4ccc(C(=O)NC5CC5)c(C)c4)c3c2)cc1F` [Example 44, N-cyclopropyl-4-{6-(3-fluoro-4-methoxyphenoxy)-4-[(tetrahydro-2H-pyran-4-ylmethyl)amino]-1H-benzimidazol-1-yl}-2-methylbenzamide], the pIC50 under setting [1] was 9.15.

Consider `Cc1cc(-n2cnc3c(NCCC(F)(F)F)cc(Oc4ccc(OCc5ccccc5)cc4)cc32)ccc1C(=O)NC1CC1` [Example 45, 4-{6-[4-(Benzyloxy)phenoxy]-4-[(3,3,3-trifluoropropyl)amino]-1H-benzimidazol-1-yl}-N-cyclopropyl-2-methylbenzamide], for which the pIC50 under setting [1] was 8.17.

For `CCNC(=O)c1ccc(-n2cnc3c(NCCC(F)(F)F)cc(Oc4ccc(OCc5ccccc5)cc4)cc32)cc1C` [Example 46, 4-{6-[4-(Benzyloxy)phenoxy]-4-[(3,3,3-trifluoropropyl)amino]-1H-benzimidazol-1-yl}-N-ethyl-2-methylbenzamide], the pIC50 under setting [1] is 7.00.

As for `CNC(=O)c1ccc(-n2cnc3c(NCCC(F)(F)F)cc(Oc4ccc(OCc5ccccc5)cc4)cc32)cc1C` [Example 47, 4-{6-[4-(Benzyloxy)phenoxy]-4-[(3,3,3-trifluoropropyl)amino]-1H-benzimidazol-1-yl}-N,2-dimethylbenzamide], the pIC50 under setting [1] is 7.00.

In the case of `CNC(=O)c1ccc(-n2cnc3c(NCCC(F)(F)F)cc(Oc4ccc(O)cc4)cc32)cc1C` [Example 48, 4-{6-(4-Hydroxyphenoxy)-4-[(3,3,3-trifluoropropyl)amino]-1H-benzimidazol-1-yl}-N,2-dimethylbenzamide], the pIC50 under setting [1] was 8.25.

Turning to `CCNC(=O)c1ccc(-n2cnc3c(NCCC(F)(F)F)cc(Oc4ccc(O)cc4)cc32)cc1C` [Example 49, N-ethyl-4-{6-(4-hydroxyphenoxy)-4-[(3,3,3-trifluoropropyl)amino]-1H-benzimidazol-1-yl}-2-methylbenzamide], the pIC50 under setting [1] is 8.26.

As for `Cc1cc(-n2cnc3c(NCCC(F)(F)F)cc(Oc4ccc(O)cc4)cc32)ccc1C(=O)NC1CC1` [Example 50, N-cyclopropyl-4-{6-(4-hydroxyphenoxy)-4-[(3,3,3-trifluoropropyl)amino]-1H-benzimidazol-1-yl}-2-methylbenzamide], under setting [1], the pIC50 is 8.96.

For `Cc1cc(-c2cc(NCCC(F)(F)F)c3ncn(-c4ccc(C(=O)NC5CC5)c(C)c4)c3c2)ccc1C(=O)NC1CC1` [Example 51, 4,4′-{4-[(3,3,3-Trifluoropropyl)amino]-1H-benzimidazole-1,6-diyl}bis(N-cyclopropyl-2-methylbenzamide)], the pIC50 under setting [1] is 9.05.

Turning to `CNC(=O)c1ccc(-c2cc(NCCC(F)(F)F)c3ncn(-c4ccc(C(=O)NC5CC5)c(C)c4)c3c2)cc1C` [Example 52, 4-{1-[4-(Cyclopropylcarbamoyl)-3-methylphenyl]-4-[(3,3,3-trifluoropropyl)amino]-1H-benzimidazol-6-yl}-N,2-dimethylbenzamide], under setting [1], the pIC50 is 9.05.

For `CCNC(=O)c1ccc(-c2cc(NCCC(F)(F)F)c3ncn(-c4ccc(C(=O)NC5CC5)c(C)c4)c3c2)cc1C` [Example 53, 4-{1-[4-(Cyclopropylcarbamoyl)-3-methylphenyl]-4-[(3,3,3-trifluoropropyl)amino]-1H-benzimidazol-6-yl}-N-ethyl-2-methylbenzamide], the pIC50 under setting [1] was 8.72.

As to `Cc1cc(-n2cnc3c(NCCC(F)(F)F)cc(Oc4ccccc4O)cc32)ccc1C(=O)NC1CC1` [Example 54, N-cyclopropyl-4-{6-(2-hydroxyphenoxy)-4-[(3,3,3-trifluoropropyl)amino]-1H-benzimidazol-1-yl}-2-methylbenzamide], the pIC50 under setting [1] was 9.70.

With `CCNC(=O)c1ccc(-n2cnc3c(NCCC(F)(F)F)cc(Oc4ccccc4O)cc32)cc1C` [Example 55, N-ethyl-4-{6-(2-hydroxyphenoxy)-4-[(3,3,3-trifluoropropyl)amino]-1H-benzimidazol-1-yl}-2-methylbenzamide], under setting [1], the negative-log IC50 (pIC50) is 9.15.

On to `CNC(=O)c1ccc(-n2cnc3c(NCCC(F)(F)F)cc(Oc4ccccc4O)cc32)cc1C` [Example 56, 4-{6-(2-hydroxyphenoxy)-4-[(3,3,3-trifluoropropyl)amino]-1H-benzimidazol-1-yl}-N,2-dimethylbenzamide], for which, under setting [1], the pIC50 was 9.52.

In the case of `COc1c(F)cccc1Oc1cc(NCCC(F)(F)F)c2ncn(-c3ccc(C(=O)NC4CC4)c(C)c3)c2c1` [Example 57, N-cyclopropyl-4-{6-(3-fluoro-2-methoxyphenoxy)-4-[(3,3,3-trifluoropropyl)amino]-1H-benzimidazol-1-yl}-2-methylbenzamide], the pIC50 under setting [1] was 8.17.

Regarding `Cc1cc(-n2cnc3c(NCCC(F)(F)F)cc(Oc4cccc(OC(F)(F)F)c4)cc32)ccc1C(=O)NC1CC1` [Example 59, N-cyclopropyl-2-methyl-4-{6-[3-(trifluoromethoxy)phenoxy]-4-[(3,3,3-trifluoropropyl)amino]-1H-benzimidazol-1-yl}benzamide], the pIC50 under setting [1] was 7.92.
